The subject of data set [1] is NCI-H1373-luc ICA tumor model. Briefly: in vivo anti-tumor efficacy, intra-carotid artery metastatic brain tumor model (bioluminescence). Also noted: species or system Nu/Nu mice. As to conditions: for T/C / TGI: day 21, from log 10 Bioluminescence. From the text:
The objective of this Example is to evaluate the in vivo anti-tumor efficacy of AMG510 (positive control KRAS G12C inhibitor), MRTX 849 (positive control KRAS G12C inhibitor) and HBI-2438 (a KRAS G12C inhibitor of the invention) in NCH-H1373-luc ICA, an intra-carotid artery metastatic brain tumor model, in Nu/Nu mice. HBI-2438 (the compound of Formula Ia) was supplied by Huyabio International, LLC. This intra-carotid artery model is well recognized in the art for evaluating the ability of a target compound to treat metastatic brain tumor.
All the procedures related to animal handling, care and the treatment in the study were performed according to the guidelines approved by the Institutional Animal Care and Use Committee (IACUC) of WuXi AppTec, following the guidance of the Association for Assessment and Accreditation of Laboratory Animal Care (AAALAC). At the time of routine monitoring, the animals were checked daily for tumor growth and any effects of treatments on normal behavior such as mobility, food and water consumption (by looking only), body weight gain/loss (body weights were measured twice per week), eye/hair matting and any other abnormal effect as stated in the protocol. Death and observed clinical signs were recorded on the basis of the numbers of animals within each subset.
Methods: The NCI-H1373-luc tumor cells were maintained in medium supplemented with 10% heat inactivated fetal bovine serum at 37° C. in an atmosphere of 5% CO2 in air. The tumor cells were routinely subcultured twice weekly. The cells growing in an exponential growth phase were harvested and counted for tumor inoculation. Each mouse was inoculated with NCI-H1373-luc tumor cells (0.5×10^5) in 100 μL of PBS. The animals were randomized and treatments were started when the Bioluminescence signal reached 8*10^6. After grouping, the bioluminescence measurements were taken once per week with IVIS (Lumina II).
Each mouse was inoculated with NCI-H1373-luc tumor cells (0.5×10^5) in 100 μL of PBS. The animals were randomized and treatments were started when the Bioluminescence signal reached 8*10^6. After grouping, the bioluminescence measurements were taken once per week with IVIS (Lumina II).
Tumor growth inhibition rate for test articles in the NCI-H1373-luc model was calculated based on log 10 Bioluminescence measurement at day 21 after the start of treatment, as shown in Table 3.

Data set [2] is classed as in vivo. As to conditions: for BW change: Day 20 vs Day 0. Here is the method:
Observation and Data Collection: After tumor cells inoculation, the animals were checked daily for morbidity and mortality. During routine monitoring, the animals were checked for any effects of tumor growth and treatments on behavior such as mobility, food and water consumption, body weight gain/loss (body weights were measured twice per week after randomization), eye/hair matting and any other abnormalities. Mortality and observed clinical signs were recorded for individual animals in detail.
(§1) Tumor volumes were measured twice per week after randomization in two dimensions using a caliper, and the volume was expressed in mm^3 using the formula: “V=(L×W×W)/2, where V is tumor volume, L is tumor length (the longest tumor dimension) and W is tumor width (the longest tumor dimension perpendicular to L). Dosing as well as tumor and body weight measurements were conducted in a Laminar Flow Cabinet. The body weights and tumor volumes were measured by using StudyDirector™ software (version 3.1.399.19).

Data set [3] concerns colorectal cancer xenograft model CR2528. Description: in vivo therapeutic efficacy, subcutaneous HuPrime colorectal cancer xenograft model (tumor volume). Also noted: species or system female BALB/c Nude mice. As to conditions: Day 20. As for the experimental part:
The above test articles were administered as single agent or in specific combination settings as described in Table 4. […] HBI-2438 and HBI-2376 (the compound of Formula Ia and the compound of Formula IIa, respectively) were supplied by Huyabio International, LLC.
(c) Tumor Inoculation: Tumor fragments from stock mice were harvested and used for inoculation into mice. Each mouse was inoculated subcutaneously in the right flank with CR2528 model tumor fragment (2-3 mm in diameter) for tumor development on May 25, 2022.
(d) Randomization: The randomization started when the mean tumor size reached 160 mm^3. 99 mice were enrolled in the study. All animals were randomly allocated to 11 study groups, 9 mice in each group. Randomization was performed based on “Matched distribution” method/“Stratified” method (StudyDirector™ software, version 3.1.399.19)/randomized block design. The date of randomization was denoted as day 0 (Jun. 13, 2022).
as §1
The treatments on both primary and secondary studies were performed for 3 weeks. The primary study was terminated on Day 21 with plasma and tumor samples collection. For secondary analysis tumor samples were collected after the final dose and were transferred in a sterile tube, to be frozen into liquid nitrogen. All the frozen tumor samples were stored in −80° C.

Where [4] appears, read: 30 mg/kg PO QD, day 0 after start of treatment.

Each structure is given as a SMILES string. Several values for one entry are separate records, joined by “and”; a condition that tells them apart may be missing. Equal values may be shown once. Read-outs that look alike come from different tables or passages of the source.

As usually defined, the T/C is the ratio of treated to control. As to `C=CC(=O)N1CCN(c2nc(=O)n(-c3c(C)ccnc3C(C)C)c3nc(-c4c(O)cccc4F)c(F)cc23)[C@@H](C)C1` [AMG-510, reference compound], the “log 10 Bioluminescence (mean ± SEM)” value was 6.86 ± 0.09 in data set [1] (setting [4]); 6.12 ± 0.06 in data set [1] (30 mg/kg PO QD, day 7); 6.32 ± 0.25 in data set [1] (30 mg/kg PO QD, day 14); 6.69 and 6.69 ± 0.3 in data set [1] (30 mg/kg PO QD, day 21). Besides, the T/C in data set [1] (30 mg/kg PO QD) stood at 79.3%. The TGI in data set [1] (30 mg/kg PO QD) is reported as 111.5%.
Turning to `C[C@@H]1OCC2(CCN(c3cnc(Sc4cccc(NC(=O)c5c(O)nc6n(c5=O)CCCC6)c4Cl)cn3)CC2)[C@@H]1N` [HBI-2376, N-(3-((5-((3S,4S)-4-amino-3-methyl-2-oxa-8-azaspiro[4.5]decan-8-yl)pyrazin-2-yl)thio)-2-chlorophenyl)-2-hydroxy-4-oxo-6,7,8,9-tetrahydro-4H-pyrido[1,2-a]pyrimidine-3-carboxamide], in data set [2] (5 mg/kg QD), the “Day 0 BW (mean ± SEM)” value is given as 22.79 ± 0.69, the “Day 20 BW (mean ± SEM)” value was determined as 22.03 ± 1.05 and the BW change was −3.36%. In addition, the “Maximum mean BWL” value in data set [2] (5 mg/kg QD, on Day 20) is on record as −3.36% on. In data set [3] (5 mg/kg QD), the T/C is 27.18%, the TGI came out at 72.82% and the “Tumor Volume (mean ± SEM)” value is 469.69 ± 81.71 mm^3.
As for `C[C@@H]1OCC2(CCN(c3cnc(Sc4ccnc(N)c4Cl)c(N)n3)CC2)[C@@H]1N` [TNO-155, reference compound], in data set [3] (5 mg/kg QD), the T/C is reported as 53.02%, the TGI is recorded as 46.98% and the “Tumor Volume (mean ± SEM)” value was 916.21 ± 100.32 mm^3.
On to `C=C(F)C(=O)N1CCN(c2nc(OC[C@@H]3CCCN3C)nc3c2CCN(c2cccc4cccc(Cl)c24)C3)C[C@@H]1CC#N` [MRTX849, reference compound], for which the “log 10 Bioluminescence (mean ± SEM)” value in data set [1] (setting [4]) was 6.83 ± 0.14; in data set [1] (30 mg/kg PO QD, day 7), 6.38 ± 0.21; in data set [1] (30 mg/kg PO QD, day 14) it was 6.24 ± 0.18; in data set [1] (30 mg/kg PO QD, day 21) it was 6.01 and 6.01 ± 0.14. Moreover, the T/C is 71.3% in data set [1] (30 mg/kg PO QD) and 41.56% in data set [3] (100 mg/kg QD). Besides, the TGI is listed as 152.6% in data set [1] (30 mg/kg PO QD) and 58.44% in data set [3] (100 mg/kg QD). Moreover, the “Tumor Volume (mean ± SEM)” value in data set [3] (100 mg/kg QD) is 718.22 ± 151.89 mm^3.
For the compound `C=CC(=O)N1C[C@@H]2C(=O)N(CCN(C)C)c3c(c4cc(Cl)c(-c5c(O)cccc5F)nc4n(-c4c(C)ccnc4C(C)C)c3=O)N2C[C@H]1C` [HBI-2438], the “Day 0 BW (mean ± SEM)” value in data set [2] (10 mg/kg QD) stood at 22.32 ± 0.57; in data set [2] (30 mg/kg QD), 22.54 ± 0.61; in data set [2] (100 mg/kg QD), 21.91 ± 0.57. Also, the “Day 20 BW (mean ± SEM)” value in data set [2] (10 mg/kg QD) is reported as 22.19 ± 0.81; in data set [2] (30 mg/kg QD), 23.89 ± 0.58; in data set [2] (100 mg/kg QD) it was 22.31 ± 0.71. The BW change in data set [2] (10 mg/kg QD) was −0.62%; in data set [2] (30 mg/kg QD), 6.12%; in data set [2] (100 mg/kg QD) it was 1.86%. Besides, the “Maximum mean BWL” value was −0.62% on in data set [2] (10 mg/kg QD, on Day 20); “No BWL” in data set [2] (30 mg/kg QD); “No BWL” in data set [2] (100 mg/kg QD). The “log 10 Bioluminescence (mean ± SEM)” value in data set [1] (15 mg/kg PO QD, day 0 after start of treatment) was 6.86 ± 0.11; in data set [1] (15 mg/kg PO QD, day 7), 6.49 ± 0.14; in data set [1] (15 mg/kg PO QD, day 14), 6.44 ± 0.2; in data set [1] (15 mg/kg PO QD, day 21) it was 6.58 and 6.58 ± 0.21; in data set [1] (setting [4]) it was 6.86 ± 0.1; in data set [1] (30 mg/kg PO QD, day 7), 6.09 ± 0.07. In addition, the “log 10 Bioluminescence (mean ± SEM)” value in data set [1] (30 mg/kg PO QD, day 14) was 5.86 ± 0.12; in data set [1] (30 mg/kg PO QD, day 21), 6.00 and 6.00 ± 0.13; in data set [1] (100 mg/kg PO QD, day 0 after start of treatment) it was 6.86 ± 0.11; in data set [1] (100 mg/kg PO QD, day 7) it was 5.92 ± 0.09; in data set [1] (100 mg/kg PO QD, day 14), 6.04 ± 0.2; in data set [1] (100 mg/kg PO QD, day 21), 6.09 and 6.09 ± 0.24. Also, the T/C in data set [1] (15 mg/kg PO QD) turned out to be 78.1%; in data set [1] (30 mg/kg PO QD), 71.2%; in data set [1] (100 mg/kg PO QD), 72.2%; in data set [3] (10 mg/kg QD), 84.37%; in data set [3] (30 mg/kg QD), 52.41%; in data set [3] (100 mg/kg QD), 43.69%. Besides, the TGI in data set [1] (15 mg/kg PO QD) is given as 118.2%; in data set [1] (30 mg/kg PO QD), 155.8%; in data set [1] (100 mg/kg PO QD), 150.0%; in data set [3] (10 mg/kg QD), 15.63%; in data set [3] (30 mg/kg QD), 47.59%; in data set [3] (100 mg/kg QD), 56.31%. For the same compound, the “Tumor Volume (mean ± SEM)” value in data set [3] (10 mg/kg QD) was found to be 1458.01 ± 164.19 mm^3; in data set [3] (30 mg/kg QD), 905.6 ± 108.46 mm^3; in data set [3] (100 mg/kg QD), 754.97 ± 98 mm^3.

The record behind these values is patent US20240252490A1, “Combination Therapies Comprising Kras Inhibitors and SPH2 Inhibitors” (HUYABIO International, LLC, priority 2022, published 2024).
